The target of series [1] is T1, Protein disulfide-isomerase (Homo sapiens, UniProt P07237). Kind of series: Irreversible inhibition of recombinant PDI (unknown origin) at 4 uM preincubated for 1 hrs and measured after 10 fold dilution by absorbance based analysis.
Target sequence in this assay (P07237 18-508 limits assumed): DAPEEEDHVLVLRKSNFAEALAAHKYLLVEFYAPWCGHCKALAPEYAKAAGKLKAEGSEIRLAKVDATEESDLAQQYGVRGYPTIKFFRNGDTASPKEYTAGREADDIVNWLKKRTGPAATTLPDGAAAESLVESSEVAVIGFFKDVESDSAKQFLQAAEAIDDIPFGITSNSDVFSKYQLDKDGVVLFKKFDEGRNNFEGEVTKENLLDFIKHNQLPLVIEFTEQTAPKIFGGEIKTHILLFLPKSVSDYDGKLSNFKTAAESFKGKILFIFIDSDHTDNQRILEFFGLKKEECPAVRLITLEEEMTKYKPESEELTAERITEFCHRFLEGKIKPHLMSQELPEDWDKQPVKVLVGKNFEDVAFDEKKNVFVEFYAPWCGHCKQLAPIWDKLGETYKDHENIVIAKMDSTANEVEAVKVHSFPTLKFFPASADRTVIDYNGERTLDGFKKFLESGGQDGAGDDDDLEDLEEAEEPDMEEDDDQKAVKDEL
The target in series [2] is T2, Protein disulfide-isomerase A6 (Homo sapiens, UniProt Q15084).
T2 sequence (Q15084 whole entry): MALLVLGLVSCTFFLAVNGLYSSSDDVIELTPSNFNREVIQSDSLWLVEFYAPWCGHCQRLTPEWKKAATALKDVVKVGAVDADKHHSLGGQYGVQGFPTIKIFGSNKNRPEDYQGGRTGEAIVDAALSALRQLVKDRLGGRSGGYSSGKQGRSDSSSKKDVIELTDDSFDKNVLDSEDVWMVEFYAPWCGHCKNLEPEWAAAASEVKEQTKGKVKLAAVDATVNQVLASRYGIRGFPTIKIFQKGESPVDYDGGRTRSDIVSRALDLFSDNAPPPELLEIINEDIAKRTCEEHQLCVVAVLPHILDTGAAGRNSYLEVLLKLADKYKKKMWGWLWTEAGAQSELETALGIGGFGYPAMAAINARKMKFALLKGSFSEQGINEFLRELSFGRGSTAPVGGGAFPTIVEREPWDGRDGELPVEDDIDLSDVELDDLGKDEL
Kind of series: Inhibition of recombinant PDIA6 (unknown origin) preincubated for 1 hrs followed by bovine insulin addition and measured after 80 mins by absorbance based reductase assay.

For series [3], the target named is T3, Protein disulfide-isomerase A3 (Homo sapiens, UniProt P30101).
T3 sequence (P30101 whole entry): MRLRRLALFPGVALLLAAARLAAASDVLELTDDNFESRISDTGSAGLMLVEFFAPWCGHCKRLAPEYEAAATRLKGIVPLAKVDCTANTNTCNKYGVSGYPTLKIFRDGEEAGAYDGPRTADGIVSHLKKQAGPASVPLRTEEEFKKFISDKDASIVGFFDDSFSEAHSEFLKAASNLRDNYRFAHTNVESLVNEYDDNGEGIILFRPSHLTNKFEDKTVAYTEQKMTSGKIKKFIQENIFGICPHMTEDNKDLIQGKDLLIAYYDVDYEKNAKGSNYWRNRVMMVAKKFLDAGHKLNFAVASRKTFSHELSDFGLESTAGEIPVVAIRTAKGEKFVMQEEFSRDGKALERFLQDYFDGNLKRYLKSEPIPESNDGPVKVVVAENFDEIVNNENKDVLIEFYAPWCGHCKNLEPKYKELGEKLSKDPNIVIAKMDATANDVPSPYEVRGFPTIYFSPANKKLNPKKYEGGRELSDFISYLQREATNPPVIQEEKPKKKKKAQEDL
In words: Inhibition of recombinant PDIA3 (unknown origin) preincubated for 1 hrs followed by bovine insulin addition and measured after 80 mins by absorbance based reductase assay.

Series [4] concerns the target T1, Protein disulfide-isomerase. In words: Inhibition of recombinant PDI (unknown origin) preincubated for 1 hrs followed by bovine insulin addition and measured after 80 mins by absorbance based reductase assay.
Target sequence in this assay (P07237 whole entry): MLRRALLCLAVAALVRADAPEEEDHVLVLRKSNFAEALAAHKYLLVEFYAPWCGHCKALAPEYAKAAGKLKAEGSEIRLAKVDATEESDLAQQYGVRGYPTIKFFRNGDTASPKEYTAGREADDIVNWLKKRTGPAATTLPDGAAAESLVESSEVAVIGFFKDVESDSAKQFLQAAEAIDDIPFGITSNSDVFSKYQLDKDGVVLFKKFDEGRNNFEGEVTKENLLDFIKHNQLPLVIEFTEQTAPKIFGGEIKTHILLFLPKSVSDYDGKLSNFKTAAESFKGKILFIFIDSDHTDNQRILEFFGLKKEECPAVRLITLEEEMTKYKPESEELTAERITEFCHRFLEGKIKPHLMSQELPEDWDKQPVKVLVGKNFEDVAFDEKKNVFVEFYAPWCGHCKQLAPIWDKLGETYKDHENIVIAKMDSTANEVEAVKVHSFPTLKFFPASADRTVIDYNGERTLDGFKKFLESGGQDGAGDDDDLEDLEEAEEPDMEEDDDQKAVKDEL
A short description of series [5]: Antiplatelet aggregation activity in human Platelet assessed as inhibition of collagen- induced aggregation preincubated for 3 mins followed by collagen addition by turbidimetric aggregometry.
The test system of series [6] is Platelet. Kind of series: Antiplatelet aggregation activity in human Platelet assessed as inhibition of thrombin- induced aggregation at 50 to 200 uM preincubated for 3 mins followed by thrombin addition by turbidimetric aggregometry. Format: functional, cell-based. As to conditions: dose 50-200 µM.
Series [7] deals with Blood. Kind of series: Antithrombotic activity in citrated-human whole blood assessed as reduction in coverage area of thrombi on collagen-coated chamber at 200 uM incubated for 10 mins in presence of DiOC6(3) by fluorescence microscopic analysis relative to control. Format: functional. Also on record: scale not given: the % may be the effect or the level left.
Series [8] deals with Platelet. In words: Antiplatelet aggregation activity in human Platelet assessed as inhibition of U46619- induced aggregation at 50 to 200 uM preincubated for 3 mins followed by U46619 addition by turbidimetric aggregometry. Format: functional, cell-based. As to conditions: dose 50-200 µM.
In series [9] the test system is Blood. In words: Antithrombotic activity in citrated-human whole blood assessed as reduction in coverage area of thrombi on collagen-coated chamber at 100 uM incubated for 10 mins in presence of DiOC6(3) by fluorescence microscopic analysis relative to control. Format: functional. Also on record: scale not given: the % may be the effect or the level left.
Series [10] can be described thus: Antiplatelet aggregation activity in human Platelet assessed as inhibition of thrombin- induced aggregation preincubated for 3 mins followed by thrombin addition by turbidimetric aggregometry.
The next series relates to A549. Kind of series: Antiproliferative activity against human A549 cells assessed as reduction in cell viability at 5 to 40 uM incubated for 24 hrs by MTT assay. Format: functional, cell-based. To be noted: dose 5-40 µM. On the technique in general: Tetrazolium dyes change colour on reduction, which living cells bring about.
A further series concerns HepG2. Kind of series: Antiproliferative activity against human HepG2 cells assessed as reduction in cell viability at 5 to 40 uM incubated for 24 hrs by MTT assay. Format: functional, cell-based. To be noted: dose 5-40 µM.
In a further series the test system is HUVEC. Kind of series: Cytotoxicity against HUVEC cells assessed as reduction in cell viability at 5 to 40 uM incubated for 24 hrs by MTT assay. Format: toxicity, cell-based. To be noted: human, dose 5-40 µM.
Series [11] can be described thus: Antiplatelet aggregation activity in human Platelet assessed as reduction in U46619-induced secretion of p-selectin at 5 uM preincubated for 3 mins followed by U46619 addition and measured after 5 mins by flow cytometric analysis relative to control. Format: functional. Also on record: scale not given: the % may be the effect or the level left. To be noted: time 8 min. (A flow cytometer gives signals particle by particle.)

Series [12] can be described thus: Antiplatelet aggregation activity in human Platelet assessed as inhibition of U46619- induced aggregation preincubated for 3 mins followed by U46619 addition by turbidimetric aggregometry.
The next series has as its system MDA-MB-231. In words: Antiproliferative activity against human MDA-MB-231 cells assessed as reduction in cell viability at 5 to 40 uM incubated for 24 hrs by MTT assay. Format: functional, cell-based. As to conditions: dose 5-40 µM.
Series [13] concerns the target T1, Protein disulfide-isomerase. Kind of series: Inhibition of PDI in human Platelet assessed as reduction in […] activation by measuring decrease in PAC-1 binding at 5 uM preincubated for 3 mins followed by U46619 addition and measured after 5 mins by flow cytometric analysis. Format: cell-based. To be noted: time 8.0 min.
Target sequence in this assay (P07237 18-508 limits assumed): as the sequence (P07237 18-508 limits assumed) above
Series [14] shares this target. Kind of series: Inhibition of recombinant PDI (unknown origin) at 0.2 uM preincubated for 1 hrs and measured after 10 fold dilution by absorbance based analysis.
Target sequence in this assay (P07237 18-508 limits assumed): as above
Series [15] deals with Blood. Kind of series: Antithrombotic activity in citrated-human whole blood assessed as reduction in coverage area of thrombi on collagen-coated chamber at 5 uM incubated for 10 mins in presence of DiOC6(3) by fluorescence microscopic analysis relative to control. Format: functional. Also on record: scale not given: the % may be the effect or the level left.

Molecules are shown by their SMILES. Calls of active or inactive are those of the source. The calls are words filed in the database; no cut-off is given here.

Broadly, the IC50 is the concentration that inhibits the measured activity by half.

Turning to `C#CC(=O)N(c1ccc(OC)c(OC)c1)C(C(=O)NCC(=O)OCC)c1cccs1` (stereo not given), the inhibition entry in series [1] is “Active”. For the same compound, the IC50 was more than 40 µM in series [2], 28.1 µM in [3] and 12.4 µM in [4].
On to `C=C(C(=O)Nc1ccc(N(CC)CC)cc1)C(F)(F)F`, for which the 50% inhibitory concentration (IC50) in [4] worked out at 0.84 µM.
The same measure, in the same setting: the same measure for `COC(=O)c1cc(OC)c(OC)cc1NC(=O)CCl`: more than 40 µM.
On the same count and under the same terms, as for `COC(=O)c1cc(OC)c(OC)cc1NC(=O)C1CO1` (stereo not given), the figure is more than 40 µM; as for `C=C(C(=O)Nc1ccc(CN2CCOCC2)cc1)C(F)(F)F`, 1.21 µM.
The same measure, in the same setting: as for `C#CC(=O)Nc1cc(OC)c(OC)cc1C(=O)OC`, the figure is 1.6 µM.
`C=C(C(=O)Nc1ccc(C(C)(C)C)cc1)C(F)(F)F`: the IC50 in series [4] was determined as 0.87 µM.
On the same count and under the same terms, the same measure for `C=C(C(=O)Nc1ccc(C(F)(F)F)cc1)C(F)(F)F`: 0.68 µM; for `C=C(C(=O)Nc1ccc2c(c1)OCO2)C(F)(F)F`: 2.91 µM; for `C=C(C(=O)Nc1ccc(OCC)c(OC)c1)C(F)(F)F`: 1.62 µM.
In the case of `C=C(C(=O)Nc1ccc(OCc2ccccc2)c(OC)c1)C(F)(F)F`, the IC50 in [4] came out at 0.81 µM.
Take `C=CC(=O)Nc1cc(OC)c(OC)cc1C(=O)OC`: the IC50 in series [4] is more than 40 µM.
On to `CC(=O)Oc1ccccc1C(=O)O` [ASPIRIN], for which the IC50 in series [5] stood at 74.5 µM. Also, the outcome in the series with Platelet [6] and with Platelet [8] was inactive. The Activity with Blood [7] was determined as 46%; in the series on Blood [9], 21%.
Take `COC(=O)c1cc(OC)c(OC)cc1NC(=O)C12CC1C2` (stereo not given): in series [4], the IC50 was more than 40 µM.
For the compound `COC(=O)/C=C/C(=O)Nc1cc(OC)c(OC)cc1C(=O)OC`, in series [4], the IC50 was more than 40 µM.
On to `C=C(C(=O)Nc1cc(OC)c(OC)c(OC)c1)C(F)(F)F`, for which the IC50 in [4] is 0.58 µM.
For the compound `C=CS(=O)(=O)Oc1cc(OC)c(OC)cc1C(=O)OC`, the half-maximal inhibitory concentration (IC50) in [4] was 1.1 µM.
Consider `C=C(C(=O)Nc1cc(OC)c(OC)cc1C(=O)OC)C(F)(F)F`, for which, in series [4], the IC50 stood at 2.2 µM.
Turning to `C=C(F)C(=O)Nc1cc(OC)c(OC)cc1C(=O)OC`, in series [4], the IC50 was more than 40 µM.
On the same count and under the same terms, the same measure for `C=C(C(=O)Nc1ccc(Cc2ccccc2)cc1)C(F)(F)F`: 0.56 µM; for `C=C(C(=O)Nc1ccc(-c2ccccc2)cc1)C(F)(F)F`: 1.63 µM.
As for `C=C(C(=O)Nc1ccc(C(=O)c2ccccc2)cc1)C(F)(F)F`, the IC50 in series [5] is 13 µM; in series [10], 25.5 µM; in series [12], 3.5 µM; in [2] it was 7.1 µM; in series [3] it was 1.52 µM; in series [4], 0.48 µM. Also, the result in the series on A549, with HepG2 and with MDA-MB-231 was inactive. In addition, the values for the Activity entry (in the series on HUVEC; in series [11]; with Blood [15]) were “Non-toxic”, 52% and 36%, respectively. Also, in series [13], the inhibition entry is “Active”. In addition, the inhibition result in series [14] was “Not active; Compound Exhibited Reversible Binding Mode With Pdi”.
`C=CS(=O)(=O)Nc1cc(OC)c(OC)cc1C(=O)OC`: the IC50 in series [4] turned out to be 19.1 µM.
Still for that read-out and setting: the same measure for `C=C(C(=O)Nc1ccc(OCCC)c(OC)c1)C(F)(F)F`: 1.23 µM.
Same read-out and setting: the same measure for `C=C(C(=O)Nc1ccc(OC)c(OC)c1)C(F)(F)F`: 3 µM.

Values taken from ChEMBL document CHEMBL6074718, “Discovery and biological evaluation of potent 2-trifluoromethyl acrylamide warhead-containing inhibitors of protein disulfide isomerase” (Eur J Med Chem, 2025).
